# Data taken from US20260042743A1, “SUBSTITUTED BENZIMIDAZOLES FOR TREATING VIRAL DISEASES” (COUNCIL OF SCIENTIFIC AND INDUSTRIAL RESEARCH, priority 2022, published 2026).
# Tested on: SARS-CoV-2
# Assay: cell-based anti-viral assay using Vero E6 cell line, viral RNA by qRT-PCR
# Conditions: Vero E6 cells, 48 h; for ΔCt (1 μM) / inhibition at 1 µM: 1 μM compound; for ΔCt (1 μM) / ΔCt (5 μM): increase in Ct vs no-drug control; for ΔCt (5 μM) / inhibition at 5 µM: 5 μM compound; for inhibition at 1 µM / inhibition at 5 µM: Severe acute respiratory syndrome coronavirus 2, Vero C1008, calculated from ΔCt; for inhibition at 1 µM: read-out: % SARS-CoV-2 Inactivation (1 μM); for inhibition at 5 µM: read-out: % SARS-CoV-2 Inactivation (5 μM)
Compound,ΔCt (1 μM),ΔCt (5 μM),inhibition at 1 µM [%],inhibition at 5 µM [%]
"FC(F)(F)c1cccc(Nc2nc3ccc(C(F)(F)F)cc3[nH]2)c1 [Example 32, 6-(trifluoromethyl)-N-(3-(trifluoromethyl)phenyl)-1H-benzo[d]imidazol-2-amine]",0.2,9.3,< 3,> 99
"Fc1cc2nc(Nc3cccc(C(F)(F)F)c3)[nH]c2cc1F [Example 10, 5,6-difluoro-N-(3-(trifluoromethyl)phenyl)-1H-benzo[d]imidazol-2-amine]",2.4,2.4,< 3,< 3
"FC(F)(F)Oc1ccc2nc(Nc3cc(C(F)(F)F)cc(C(F)(F)F)c3)[nH]c2c1 [Example 29, N-(3,5-bis(trifluoromethyl)phenyl)-6-(trifluoromethoxy)-1H-benzo[d]imidazol-2-amine]",4.7,11.5,> 95,99.9
"Cn1c(Nc2cc(C(F)(F)F)cc(C(F)(F)F)c2)nc2cc(F)c(F)cc21 [Example 39, N-(3,5-bis(trifluoromethyl)phenyl)-5,6-difluoro-1-methyl-1H-benzo[d]imidazol-2-amine]",0.5,1,< 3,< 3
"FC(F)(F)c1cc(C(F)(F)F)c2nc(Nc3ccccc3C(F)(F)F)[nH]c2c1 [Example 28, 4,6-bis(trifluoromethyl)-N-(2-(trifluoromethyl)phenyl)-1H-benzo[d]imidazol-2-amine]",−2,2,< 3,< 3
"Fc1ccc(Nc2nc3c(C(F)(F)F)cc(C(F)(F)F)cc3[nH]2)cc1 [Example 25, N-(4-fluorophenyl)-4,6-bis(trifluoromethyl)-1H-benzo[d]imidazol-2-amine]",2,3.6,< 3,90
"FC(F)(F)c1ccc(Nc2nc3c(C(F)(F)F)cc(C(F)(F)F)cc3[nH]2)cc1 [Example 27, 4,6-bis(trifluoromethyl)-N-(4-(trifluoromethyl)phenyl)-1H-benzo[d]imidazol-2-amine]",1.2,8,< 3,> 99
"Fc1cc2nc(NCc3ccccc3)[nH]c2cc1F [Example 13, N-benzyl-5,6-difluoro-1H-benzo[d]imidazol-2-amine]",1.3,1,< 3,< 3
"FC(F)(F)c1cc(C(F)(F)F)c2nc(Nc3cccnc3)[nH]c2c1 [Example 5, N-(pyridin-3-yl)-4,6-bis(trifluoromethyl)-1H-benzo[d]imidazol-2-amine]",1,1.2,< 3,< 3
"FC(F)(F)c1ccc(Nc2nc3ccc(C(F)(F)F)cc3[nH]2)cc1 [Example 33, 6-(trifluoromethyl)-N-(4-(trifluoromethyl)phenyl)-1H-benzo[d]imidazol-2-amine]",1.4,14.3,< 3,100
"Fc1cccc(Nc2nc3c(C(F)(F)F)cc(C(F)(F)F)cc3[nH]2)c1 [Example 24, N-(3-fluorophenyl)-4,6-bis(trifluoromethyl)-1H-benzo[d]imidazol-2-amine]",0.7,4.3,< 3,> 90
"FC(F)(F)c1cccc(Nc2nc3c(C(F)(F)F)cc(C(F)(F)F)cc3[nH]2)c1 [Example 14, 4,6-bis(trifluoromethyl)-N-(3-(trifluoromethyl)phenyl)-1H-benzo[d]imidazol-2-amine]",7.4,16,99,100
"CN(c1cc(C(F)(F)F)cc(C(F)(F)F)c1)c1nc2cccc(C(F)(F)F)c2[nH]1 [Example 44, N-(3,5-bis(trifluoromethyl)phenyl)-N-methyl-7-(trifluoromethyl)-1H-benzo[d]imidazol-2-amine]",1.4,5,< 3,> 95
"FC(F)(F)c1cc(C(F)(F)F)c2nc(Nc3ccc(Cl)cc3)[nH]c2c1 [Example 2, N-(4-chlorophenyl)-4,6-bis(trifluoromethyl)-1H-benzo[d]imidazol-2-amine]",4.4,6,> 90,> 95
"FC(F)(F)c1cc(C(F)(F)F)c2nc(NC3CCOCC3)[nH]c2c1 [Example 7, N-(tetrahydro-2H-pyran-4-yl)-4,6-bis(trifluoromethyl)-1H-benzo[d]imidazol-2-amine]",0.9,−0.32,< 3,< 3
"CC(C)c1ccccc1Nc1nc2c(C(F)(F)F)cc(C(F)(F)F)cc2[nH]1 [Example 18, N-(2-isopropylphenyl)-4,6-bis(trifluoromethyl)-1H-benzo[d]imidazol-2-amine]",1.4,1.4,< 3,< 3
"O=S1(=O)CCC(Nc2nc3c(C(F)(F)F)cc(C(F)(F)F)cc3[nH]2)C1 (stereo not shown) [Example 20, 3-((4,6-bis(trifluoromethyl)-1H-benzo[d]imidazol-2-yl)amino)tetrahydrothiophene 1,1-dioxide]",1.7,3.7,< 3,> 90
"CN(c1ccc(C(F)(F)F)cc1)c1nc2cccc(C(F)(F)F)c2[nH]1 [Example 43, N-methyl-7-(trifluoromethyl)-N-(4-(trifluoromethyl)phenyl)-1H-benzo[d]imidazol-2-amine]",1.8,3.6,< 3,> 90
"COc1ccc(Nc2nc3c(C(F)(F)F)cc(C(F)(F)F)cc3[nH]2)cc1Br [Example 4, N-(3-bromo-4-methoxyphenyl)-4,6-bis(trifluoromethyl)-1H-benzo[d]imidazol-2-amine]",2.7,6,< 3,> 95
"COc1ccc2nc(Nc3cc(C(F)(F)F)cc(C(F)(F)F)c3)[nH]c2c1 [Example 37, N-(3,5-bis(trifluoromethyl)phenyl)-6-methoxy-1H-benzo[d]imidazol-2-amine]",5,4.3,> 95,> 90
"Fc1cc2nc(Nc3cc(C(F)(F)F)cc(C(F)(F)F)c3)[nH]c2cc1F [Example 11, N-(3,5-bis(trifluoromethyl)phenyl)-5,6-difluoro-1H-benzo[d]imidazol-2-amine]",5.8,10.3,> 95,99.9
"Fc1cc2nc(Nc3ccccc3)[nH]c2cc1F [Example 8, 5,6-difluoro-N-phenyl-1H-benzo[d]imidazol-2-amine]",3.1,4.2,90,> 90
